Patent publication US20170151373A1, “ANTIMICROBIAL SOLUTIONS WITH ENHANCED STABILITY” (Board of Regents, The University of Texas System, priority 2015, published 2017)
Where two headings read alike, the source gives them in different places.

What was measured:
[1] = pH measurement of solutions (pH meter); format: physicochemical
Protocol: A solution containing disodium EDTA that was pH adjusted using base was prepare by the following method: • 1. Weigh out 300 mg disodium EDTA powder in 30 ml vial, and dissolve in 9.3 mL sterile water. Shake EDTA and sterile water until completely dissolved. QS to 10 ml with water. […] Measure pH, Add 1M NaOH recording volume added and remeasure pH.
A solution containing tetrasodium EDTA pH adjusted with disodium EDTA was prepared by the following method: • 1. Weigh out 300 mg disodium EDTA powder in 30 ml vial, and dissolve in 9.3 mL sterile water. Shake EDTA and sterile water until completely dissolved. QS to 10 ml with water. […] Weigh out 300 mg tetrasodium EDTA powder in 30 ml vial, and dissolve in 9.3 mL sterile water. Shake EDTA and sterile water until completely dissolved. QS to 10 ml with water. […] Measure pH of tetrasodium EDTA and add disodium EDTA recording volume added and pH after each addition • The following solutions were produced:
7. Prepare 19 syringes with 1 mL in each syringe. (1-3 mL sterile syringe can be used) Label the syringes and protect from light. • The pH from seven syringes, sampled randomly, were measured using a pH meter.

[2] = cited from earlier work; for fraction of EDTA that is tetravalent: 0.1 Molar (Harris 2010)

Compound: O=C([O-])CN(CCN(CC(=O)O)CC(=O)O)CC(=O)[O-].[Na+].[Na+] [3% disodium EDTA, Ethylenediamine-N,N,N′,N′,-tetraacetic acid, disodium salt]
- pH ([1]; 10 ml 3% disodium EDTA, total volume 1M NaOH added 0): 4.5
- pH ([1]; 10 ml 3% disodium EDTA, total volume 1M NaOH added 0.5 ml): 4.9
- pH ([1]; 10 ml 3% disodium EDTA, total volume 1M NaOH added 1.0 ml): 5.4
- pH ([1]; 10 ml 3% disodium EDTA, total volume 1M NaOH added 1.5 ml): 6.9
- pH ([1]; 10 ml 3% disodium EDTA, total volume 1M NaOH added 1.7 ml): 7.4

Compound: O=C([O-])CN(CCN(CC(=O)[O-])CC(=O)[O-])CC(=O)[O-].[Na+].[Na+].[Na+].[Na+] [3% tetrasodium EDTA, Ethylenediamine-N,N,N′,N′-tetraacetic acid, tetrasodium salt]
- pH ([1]; 5 ml 3% tetrasodium EDTA, total volume 3% disodium EDTA added 0): 10.9
- pH ([1]; 5 ml 3% tetrasodium EDTA, total volume 3% disodium EDTA added 1 ml): 10.2
- pH ([1]; 5 ml 3% tetrasodium EDTA, total volume 3% disodium EDTA added 2 ml): 9.5
- pH ([1]; 5 ml 3% tetrasodium EDTA, total volume 3% disodium EDTA added 3 ml): 9.0
- pH ([1]; 5 ml 3% tetrasodium EDTA, total volume 3% disodium EDTA added 4 ml): 8.8
- pH ([1]; 5 ml 3% tetrasodium EDTA, total volume 3% disodium EDTA added 5 ml): 8.1
- pH ([1]; 5 ml 3% tetrasodium EDTA, total volume 3% disodium EDTA added 6 ml): 7.1

Compound: O=C(O)CN(CCN(CC(=O)O)CC(=O)O)CC(=O)O [pure tetra-acid EDTA, Ethylenediamine-N,N,N′,N′,-tetraacetic acid]
- fraction of EDTA that is tetravalent ([2]; pH 6, 20 degrees Celsius): about 0.000018
- fraction of EDTA that is tetravalent ([2]; pH 8, 20 degrees Celsius): about 0.0042
- pH ([1]; in water/ethanol, Example 1): 3.1

Compound: O=C([O-])CN(CCN(CC(=O)[O-])CC(=O)O)CC(=O)[O-].[Na+].[Na+].[Na+] [Trisodium EDTA, Ethylenediamine-N,N,N′,N′,-tetraacetic acid, trisodium salt]
- pH ([2]; vendor product (Dissolvine NA3-36)): 9.5
